From patent publication US6093723A, “4-substituted beta-carbolines and analogs thereof” (Boehringer Ingelheim Pharmaceuticals, Inc., priority 1997, dated 2000)

What was measured:
[1] = tested on: Ca^+2 influx in Jurkat cells (clone E6-1); assay: Calcium influx assay (thapsigargin-stimulated, Fluo-3); format: cell-based; details: Homo sapiens; Jurkat cells clone E6-1, thapsigargin 100 nM, 10 min preincubation
Method: Jurkat cells (clone E6-1) are pelleted by centrifugation, washed twice, and resuspended in RPMI 1640 containing, […], 1 % fetal calf serum, 3 μM Fluo-3-AM, 13.5 μl/ml Pluronic F 127 (Molecular Probes) and incubated for 1 hour at 37° C. The loaded cells are washed twice in Hanks Balanced Salt Solution containing 10 mM HEPES. The cells are resuspended in HBSS containing 10 mM HEPES, and dispensed into 96-well Dynatech black microtiter plates at 2×10^5 cells/well. The cells are preincubated with compounds for 10 minutes at room temperature. Baseline fluorescence of unstimulated cells is measured using an SLT fluorescent microtiter plate reader with an excitation wavelength of 495 nm and emission wavelength of 538 nm. Thapsigargin is then added to a final concentration of 100 nM. Following a 5 minute incubation, fluorescence of thapsigargin treated cells is measured. Delta fluorescence values are determined by subtracting baseline fluorescence values from thapsigargin induced fluorescence values.

[2] = tested on: IL-2 production in T lymphocytes (CD3+/CD4+ cells); assay: IL-2 production assay, Protocol B (antiCD3/antiCD28 as stimuli); format: cell-based; details: T-lymphocyte; human T lymphocytes, anti-CD3/anti-CD28 and goat anti-mouse coated beads, 16 hour
Method: Protocol B (antiCD3/antiCD28 as stimuli)
Human peripheral blood is obtained from healthy donors by venipuncture and the mononuclear cell fraction is prepared by centrifugation on Ficoll Hypaque (Phamacia) density gradients. Contaminating red blood cells are lysed and the CD3+/CD4+ cells are purified using immunoaffinity columns (R&D Systems or CellPro). The T lymphocytes are plated at 1-1.5×10^5 cells/well in a 96 well microtiter plate, and incubated with serial dilutions of compounds for 20 minutes at 37° C. The T cells are activated by the addition of 0.6 ng/ml anti-CD3 (Immunotech), 500 ng/ml anti-CD28 (Biodesign) and 2×10^5 goat anti-mouse coated beads (Dynal). The final volume of the assay is 200 μl. Following a 16 hour incubation at 37° C., the cells are pelleted, and the supernatants are removed and collected and stored at -70° C. until assayed for interleukin-2 using a commercial ELISA kit (R&D Systems).

[3] = tested on: allogeneic cell transplant response (T-cell-mediated immune response, popliteal lymph node); assay: Allogeneic cell transplant response in mice (popliteal lymph node weight); format: in vivo, mice (DBA donors, C57B1/6 recipients); details: dosed one hour prior to cell injection and daily thereafter, ~four days
Excerpt: Allogeneic Cell Transplant Response in Mice
The ability of cells to recognize other cells from self or from another genetically different individual (non-self) is an important property in maintaining the integrity of tissue and organ structure. The allogeneic cell transplant response is therefore an important model for studies of transplant rejection. This T-cell-mediated immune response can be induced in adult mice by the injection of lymphocytes from an histoincompatible mouse strain. This response is characterized by T cell proliferation which is limited to the popliteal lymph node that receives drainage from the footpad area. No in vitro system exists that can exactly duplicate completely this in vivo response. The assay is commonly used to evaluate new and novel potential immunosuppressive molecules.
Experiments are conducted using male or female mice (20-26 grams). Any histoincompatible mouse strains suffice for donor and recipient populations. Typically DBA mice are used as donors and C57B1/6 mice are used as recipients. A minimum of 1 week stabilization and conditioning period is usually required before use of the mice. Each study utilizes approximately 36 recipient mice divided into groups of 6.
Donor mice are sacrificed by CO2 asphyxiation and spleens are removed and a cell suspension is prepared. The cell suspension (1.0×10^7/metatarsal in 0.05 ml) is injected I.D. into the dorsal metatarsal skin of recipient mice. Four days later, the animals are sacrificed by CO2 asphyxiation and the popliteal nodes are removed and weighed. Groups of mice receiving putative immunosuppressive agents are dosed subcutaneously,intraperitoneally or orally one hour prior to cell injection and daily thereafter. The tests last approximately four days. The assay involves no footpad swelling and only a moderate increase in the size of the popliteal lymph node. Student's t test is used to determine significant differences between popliteal lymph nodes of groups of untreated mice and those mice treated with putative immunosuppressive agents.

[4] = tested on: IL-2 production in CD3+/CD4+ cells; assay: IL-2 production assay, Protocol A (ionomycin and PMA as stimuli); format: cell-based; details: human CD3+/CD4+ cells, ionomycin 1 μg/ml and PMA 10 ng/ml, 16 hr
Method: Protocol A (ionomycin and […] as stimuli)
Human peripheral blood is obtained from healthy donors by venipuncture and the mononuclear cell fraction is prepared by centrifugation on Ficoll Hypaque (Phamacia) density gradients. Contaminating red blood cells are lysed and the CD3+/CD4+ cells are purified using immunoaffinity columns (R&D Systems or CellPro). The cells are resuspended and dispensed in 96 well microtiter plates. Test compounds are added to the cells approximately 15 minutes prior to stimulation with ionomycin (1 μg/ml) and PMA (10 ng/ml). The final volume of the assay is 100 μL. Following a 16 hr incubation at 37° C., the cells are pelleted by centrifugation, and the supernatants are collected and stored at -70° C. until assayed for IL-2 using a commercial ELISA kit (Genzyme).

[5] = tested on: IL-2 promoter; assay: IL-2 promoter assay (luciferase reporter in Jurkat cells); format: cell-based; details: Homo sapiens; Jurkat luciferase reporter cells, ionomycin 1 μg/ml and PMA 10 ng/ml, 5 hr; read-out: IL-2 PROMOTER IC50
Excerpt: All the known regulatory features of IL-2 gene are contained within a ~300 bp sequence immediately upstream of the open reading frame. […] The resulting construct, pIL2P-luc, and a vector containing a neomycin resistance gene, pcDNA/Neo (Invitrogen), are linearized and stably transfected into Jurkat cells (a human T cell line) by electroporation.
For screening compounds, the cells are pelleted by centrifugation, washed once with PBS, resuspended in RPMI (phenol red-free) containing 5% FBS, and dispensed into 96-well, white microtiter plates (Packard) at 50,000 cells/well. The cells are pre-incubated with compounds (1 μg/ml) for 15 min prior to addition of ionomycin (1 μg/ml) and PMA (10 ng/ml) in a final volume of 100 μl. Following a 5 hr incubation at 37° C. in a humidified incubator, 100 μl of Luc-Lite lysis buffer/luciferase assay buffer (Promega) is added and luminescence measured using a Packard TopCount scintillation counter/luminometer.

SMILES | IC50 [1] [µM] | IC50 [2] [µM] | ALLOGENEIC CELL TRANSPLANT % ([3]; 0.1 mg/kg) [%] | IC50 [4] [µM] | IC50 [5] [µM] | ALLOGENEIC CELL TRANSPLANT % ([3]; 1 mg/kg) [%]
FC(F)(F)c1ccc(-c2cncc3[nH]c4ccccc4c23)cc1 [Compound 4, 4-(p-Trifluoromethylphenyl)-β-carboline] | 0.5 | 3.4 | 38 | 0.3 | 0.23 | –
COc1ccc(-c2cncc3[nH]c4ccccc4c23)cc1 [Compound 5, 4-(p-Methoxyphenyl)-β-carboline] | 0.3 | 4.2 | – | 1 | 1.09 | 60
COc1cccc(-c2cncc3[nH]c4ccccc4c23)c1 [Compound 7] | 0.7 | 9.8 | – | 5 | 3 | 49
